# Reference: patent US9353101B2 (Merck Sharp & Dohme Corp., priority 2012, dated 2016)
# Molecular target: CETP (Homo sapiens (Human), UniProt P11597)
# Test: In vitro radioactive assay of CETP-catalyzed CE and TG transfer (RTA assay), 95% human serum
# Format: biochemical
# Details: RTA assay in 95% human serum; read-out: RTA IC50 (CETP Inhibition)
# Method: In Vitro Radioactive Assays of CETP-Catalyzed CE and TG Transfer (RTA Assay)
# Reagents and sources are: [3H] cholesteryl oleate (GE #TRK.886), [3H] Triolein (Perkin-Elmer NET-431), Butylated hydroxyl toluene (Aldrich, #D4740-4), DOPC (Sigma, # P6354), Sodium Bromide (Fisher scientific #S255-500), PEG 8000 (Fisher, #BP233-1), and human HDL (Intracel Corp #RP-036).
# An in vitro assay for determining IC50's to identify compounds that inhibit CETP transfer activity is performed based on a modification of a published method (Morton and Zilversmit, (1981) A plasma inhibitor of triglyceride and cholesteryl ester transfer activities, J. Biol. Chem. 256(23), 11992-11995). The ability of inhibitors to alter CETP activity is performed using two different assays: one using recombinant CETP and one using an endogenous plasma source of CETP. Both assays measure the transfer of [3H] cholesteryl oleate or [3H] triolein from exogenous LDL to HDL.
# Radiolabeled donor particles are generated by first combining 100 μl of 200 μM butylated hydroxyl toluene in CHCl3, 216 μL of 21.57 mM DOPC in EtOH, and either 500 μCi [3H]-triolein (Perkin Elmer #NET-431) or 500 μCi [3H]-cholesteryl oleate (GE #TRK886) in a glass tube. Reagents are mixed, dried under nitrogen, and then resuspended in 2 mL of 50 mM Tris, 27 μM EDTA at pH 7.4. After a brief vortex, the solution is sonicated until clear and mixed with 20 mL of fresh human serum. The mixture is incubated overnight at 37° C. The [3H] labeled LDL substrate is separated at 1.063 g/ml density by sequential ultracentrifugal flotation in NaBr according to the method by (Havel, Eder et al. 1955; Chapman, Goldstein et al. 1981). Once isolated the particles are dialyzed 3× in CETP buffer (50 mM Tris, pH 7.4, 100 mM NaCl, 1 mM EDTA). Human HDL is purchased from Intracel and used as the acceptor particles.
# Transfer assays are performed in a 96 or 384-well v-bottom polypropylene plate. For the RTA using recombinant CETP (2% RTA), an assay cocktail is prepared with the final concentrations 128 μg/mL HDL, 20 nM rCETP, 2% human serum, and 1×CETP buffer. 1 μL of each test compound diluted in DMSO is added to 47 μL of assay cocktail per well and incubated at 37° C. for 1 hour. To initiate the transfer reaction, 2 μL radiolabeled LDL is added. After an additional 60 min of incubation at 37° C., the transfer action is terminated by precipitation of LDL with an equal volume of 20% W/V PEG 8000. The plates are centrifuged at 2000 rpm for 30 minutes at 4° C. A 40 μL aliquot of the HDL-containing supernatant is transferred to a Packard Optiplate™ with 200 μL of MicroScint™ 20. After mixing, plates are counted by liquid scintillation. Counts present in the supernatant for blanks (wells containing only HDL acceptor, CETP buffer and DMSO) are subtracted from those containing test compounds and used to correct for non-specific transfer.
# For the transfer assay using endogenous CETP from serum (95% RTA), the same procedure is used except that human serum is added such that a final concentration of serum of 95% of the total assay volume is achieved, yielding a concentration of approximately 15 nM endogenous CETP in the assay. This is then combined with HDL and CETP buffer and the reaction proceeds as above and is terminated as described.
# Comparison of the counts of samples with inhibitors to an uninhibited (DMSO only) positive control yield a percent inhibition. A plot of percent inhibition vs. log of inhibitor concentration, fit to a Sigmoidal 4 parameter equation is used to calculate IC50.
# Starting materials are commercially available or are made using known procedures or as shown below. The examples may be synthesized using the general schemes provided below. The data reported for the examples below were obtained using the RTA assay in 95% human serum.
# CETP, sequence (P11597 18-493 limits assumed): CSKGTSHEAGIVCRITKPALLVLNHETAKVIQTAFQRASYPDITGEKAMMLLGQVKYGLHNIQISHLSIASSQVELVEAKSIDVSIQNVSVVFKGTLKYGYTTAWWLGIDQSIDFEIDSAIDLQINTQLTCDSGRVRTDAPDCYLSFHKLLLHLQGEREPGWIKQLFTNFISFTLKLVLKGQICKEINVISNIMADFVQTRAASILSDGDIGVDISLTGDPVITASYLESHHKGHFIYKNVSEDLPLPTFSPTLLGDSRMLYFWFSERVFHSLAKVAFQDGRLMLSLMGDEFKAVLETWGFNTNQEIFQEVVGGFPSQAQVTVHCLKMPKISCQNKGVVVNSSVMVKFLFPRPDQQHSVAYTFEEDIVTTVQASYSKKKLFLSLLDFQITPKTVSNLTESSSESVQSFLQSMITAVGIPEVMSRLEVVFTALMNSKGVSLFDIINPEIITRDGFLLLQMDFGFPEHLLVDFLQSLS
row,SMILES,IC50
1,"COc1ncc(-c2ccc(C(=O)O)cc2C)cc1-c1cnc(N2CC(F)(F)C2)nc1CN1C(=O)O[C@H](c2cc(C(F)(F)F)cc(C(F)(F)F)c2)[C@@H]1C [Example 42, 4-{5-[4-({(4S,5R)-5-[3,5-Bis(trifluoromethyl)phenyl]-4-methyl-2-oxo-1,3-oxazolidin-3-yl}methyl)-2-(3,3-difluoroazetidin-1-yl)pyrimidin-5-yl]-6-methoxypyridin-3-yl}-3-methylbenzoic acid]",9 nM
2,"COc1ncc(-c2ccc(C(=O)O)cc2C)cc1-c1cnc(-n2ccnc2)nc1CN1C(=O)O[C@H](c2cc(C(F)(F)F)cc(C(F)(F)F)c2)[C@@H]1C [Example 43, 4-{5-[4-({(4S,5R)-5-[3,5-Bis(trifluoromethyl)phenyl]-4-methyl-2-oxo-1,3-oxazolidin-3-yl}methyl)-2-(1H-imidazol-1-yl)pyrimidin-5-yl]-6-methoxypyridin-3-yl}-3-methylbenzoic acid]",109 nM
3,"COc1ncc(-c2ccc(C(=O)O)cc2C)cc1-c1cnc(N2CC(F)C2)nc1CN1C(=O)O[C@H](c2cc(F)cc(F)c2)[C@@H]1C [Example 44, 4-{5-[4-{[(4S,5R)-5-(3,5-Difluorophenyl)-4-methyl-2-oxo-1,3-oxazolidin-3-yl]methyl}-2-(3-fluoroazetidin-1-yl)pyrimidin-5-yl]-6-methoxypyridin-3-yl}-3-methylbenzoic acid]",35 nM
4,"COc1ncc(-c2ccc(C(=O)O)cc2C)cc1-c1cnc(N2CC(F)C2)nc1CN1C(=O)O[C@H](c2cccc(OC(F)(F)F)c2)[C@@H]1C [Example 45, 4-{5-[2-(3-Fluoroazetidin-1-yl)-4-({(4S,5R)-4-methyl-2-oxo-5-[3-(trifluoromethoxy)phenyl]-1,3-oxazolidin-3-yl}methyl)pyrimidin-5-yl]-6-methoxypyridin-3-yl}-3-methylbenzoic acid]",50 nM
5,"COc1ncc(-c2ccc(C(=O)O)cc2C)cc1-c1cnc(N2CC(F)C2)nc1CN1C(=O)O[C@H](c2cc(F)cc(C(F)(F)F)c2)[C@@H]1C [Example 46, 4-{5-[2-(3-Fluoroazetidin-1-yl)-4-({(4S,5R)-5-[3-fluoro-5-(trifluoromethyl)phenyl]-4-methyl-2-oxo-1,3-oxazolidin-3-yl}methyl)pyrimidin-5-yl]-6-methoxypyridin-3-yl}-3-methylbenzoic acid]",12 nM
6,"COc1ncc(-c2ccc(C(=O)O)cc2C)cc1-c1cnc(N2CC(F)(F)C2)nc1CN1C(=O)O[C@H](c2cc(F)cc(C(F)(F)F)c2)[C@@H]1C [Example 47, 4-{5-[2-(3,3-Difluoroazetidin-1-yl)-4-({(4S,5R)-5-[3-fluoro-5-(trifluoromethyl)phenyl]-4-methyl-2-oxo-1,3-oxazolidin-3-yl}methyl)pyrimidin-5-yl]-6-methoxypyridin-3-yl}-3-methylbenzoic acid]",9 nM
7,"COc1ncc(-c2c(C)cc(C(=O)O)cc2C)cc1-c1cnc(N2CC(F)C2)nc1CN1C(=O)O[C@H](c2cc(F)cc(C(F)(F)F)c2)[C@@H]1C [Example 48, 4-{5-[2-(3-Fluoroazetidin-1-yl)-4-({(4S,5R)-5-[3-fluoro-5-(trifluoromethyl)phenyl]-4-methyl-2-oxo-1,3-oxazolidin-3-yl}methyl)pyrimidin-5-yl]-6-methoxypyridin-3-yl}-3,5-dimethylbenzoic acid]",15 nM
8,"Cc1cc(C(=O)O)ccc1-c1nc(C(C)(C)C)c(-c2cnc(N3CC(F)(F)C3)nc2CN2C(=O)O[C@H](c3cc(C(F)(F)F)cc(C(F)(F)F)c3)[C@@H]2C)s1 [Example 49, 4-{5-[4-({(4S,5R)-5-[3,5-Bis(trifluoromethyl)phenyl]-4-methyl-2-oxo-1,3-oxazolidin-3-yl}methyl)-2-(3,3-difluoroazetidin-1-yl)pyrimidin-5-yl]-4-tert-butyl-1,3-thiazol-2-yl}-3-methylbenzoic acid]",800 nM
9,"Cc1cc(C(=O)O)ccc1-c1nc(C(C)(C)C)c(-c2cnc(N3CC(F)C3)nc2CN2C(=O)O[C@H](c3cc(C(F)(F)F)cc(C(F)(F)F)c3)[C@@H]2C)s1 [Example 50, 4-{5-[4-({(4S,5R)-5-[3,5-Bis(trifluoromethyl)phenyl]-4-methyl-2-oxo-1,3-oxazolidin-3-yl}methyl)-2-(3-fluoroazetidin-1-yl)pyrimidin-5-yl]-4-tert-butyl-1,3-thiazol-2-yl}-3-methylbenzoic acid]",197 nM
10,"Cc1cc(C(=O)O)ccc1-c1nc(C)c(-c2cnc(N3CC(F)C3)nc2CN2C(=O)O[C@H](c3cc(C(F)(F)F)cc(C(F)(F)F)c3)[C@@H]2C)s1 [Example 51, 4-{5-[4-({(4S,5R)-5-[3,5-Bis(trifluoromethyl)phenyl]-4-methyl-2-oxo-1,3-oxazolidin-3-yl}methyl)-2-(3-fluoroazetidin-1-yl)pyrimidin-5-yl]-4-methyl-1,3-thiazol-2-yl}-3-methylbenzoic acid]",33 nM
11,"Cc1cc(C(=O)O)ccc1-c1nc(C)c(-c2cnc(N3CC(F)(F)C3)nc2CN2C(=O)O[C@H](c3cc(C(F)(F)F)cc(C(F)(F)F)c3)[C@@H]2C)s1 [Example 52, 4-{5-[4-({(4S,5R)-5-[3,5-Bis(trifluoromethyl)phenyl]-4-methyl-2-oxo-1,3-oxazolidin-3-yl}methyl)-2-(3,3-difluoroazetidin-1-yl)pyrimidin-5-yl]-4-methyl-1,3-thiazol-2-yl}-3-methylbenzoic acid]",61 nM
12,"Cc1cc(C(=O)O)ccc1-c1cnc(C)c(-c2cnc(N3CC(F)C3)nc2CN2C(=O)O[C@H](c3cc(C(F)(F)F)cc(C(F)(F)F)c3)[C@@H]2C)c1 [Example 54, 4-{5-[4-({(4S,5R)-5-[3,5-Bis(trifluoromethyl)phenyl]-4-methyl-2-oxo-1,3-oxazolidin-3-yl}methyl)-2-(3-fluoroazetidin-1-yl)pyrimidin-5-yl]-6-methylpyridin-3-yl}-3-methylbenzoic acid]",26 nM
13,COc1ncc(-c2ccc(C(=O)OC(C)(C)C)cc2C)cc1-c1ccc(N2CCOCC2)nc1CN1C(=O)O[C@H](c2cc(C(F)(F)F)cc(C(F)(F)F)c2)[C@@H]1C [Example 55],22 nM
14,COc1ncc(-c2ccc(C(=O)O)cc2C)cc1-c1ccc(N2CCOCC2)nc1CN1C(=O)O[C@H](c2cc(C(F)(F)F)cc(C(F)(F)F)c2)[C@@H]1C [Example 56],9 nM
15,COc1ncc(-c2c(C)cc(C(=O)OC(C)(C)C)cc2C)cc1-c1ccc(N2CC(F)(F)C2)nc1CN1C(=O)O[C@H](c2cc(C(F)(F)F)cc(C(F)(F)F)c2)[C@@H]1C [Example 57],5 nM
16,COc1ncc(-c2c(C)cc(C(=O)O)cc2C)cc1-c1ccc(N2CC(F)(F)C2)nc1CN1C(=O)O[C@H](c2cc(C(F)(F)F)cc(C(F)(F)F)c2)[C@@H]1C [Example 58],7 nM
17,COc1ncc(-c2ccc(C(=O)OC(C)(C)C)cc2C)cc1-c1ccc(N2CC(F)(F)C2)nc1CN1C(=O)O[C@H](c2cc(C(F)(F)F)cc(C(F)(F)F)c2)[C@@H]1C [Example 59],15 nM
18,COc1ncc(-c2ccc(C(=O)O)cc2C)cc1-c1ccc(N2CC(F)(F)C2)nc1CN1C(=O)O[C@H](c2cc(C(F)(F)F)cc(C(F)(F)F)c2)[C@@H]1C [Example 60],5 nM
19,COc1ncc(-c2ccc(C(=O)OC(C)(C)C)cc2C)cc1-c1ccc(N2CC(F)C2)nc1CN1C(=O)O[C@H](c2cc(C(F)(F)F)cc(C(F)(F)F)c2)[C@@H]1C [Example 61],15 nM
20,COc1ncc(-c2ccc(C(=O)O)cc2C)cc1-c1ccc(N2CC(F)C2)nc1CN1C(=O)O[C@H](c2cc(C(F)(F)F)cc(C(F)(F)F)c2)[C@@H]1C [Example 62],6 nM
21,COc1ncc(-c2c(C)cc(C(=O)O)cc2C)cc1-c1cnc(N2CC(F)(F)C2)cc1CN1C(=O)O[C@H](c2cc(C(F)(F)F)cc(C(F)(F)F)c2)[C@@H]1C [Example 63],52 nM
